{
  "source": "patent US8916523B2",
  "about": "“VIP fragments and methods of use” (Vectus Biosystems Limited, priority 2005, dated 2014)",
  "note": "Ends that are not written are not given here.",
  "data": [
    {"tested_on": "WKY rats on a high salt diet", "assay": "Effect of VIP fragment treatment on regression of existing myocardial fibrosis", "assay_type": "in vivo, rat", "conditions": "18 week old WKY rats after 4 weeks high salt diet and infusion 5 pmol/kg/min vs untreated 14 week old rats (zero time), preliminary results, FIG. 2", "protocol": "To determine whether VIP (6-16) (SEQ ID NO: 72), VIP(6-20) (SEQ ID NO: 76) and VIP(6-24) (SEQ ID NO: 80) infusion caused regression of existing fibrosis as well as prevented progression of fibrosis two groups of studies were performed. The degree of myocardial fibrosis in untreated 14 week old WKY rats was compared with the degree of fibrosis in 18 week old WKY rats after 4 weeks treatment with a high salt diet or a high salt diet plus L-NAME (10 mg/kg/day) and either VIP (6-16) (SEQ ID NO: 72), VIP(6-20) (SEQ ID NO: 76) and VIP(6-24) (SEQ ID NO: 80) (5 pmol/kg/min) or vehicle control infusion (see FIG. 2)\nThe regression of fibrosis may be due to either reduction in collagen formation or enhancement of its degradation.", "values": [
      {"substance": "FTDNYTRLRKQ [VIP(6-16)]", "regression of myocardial fibrosis": "regression of myocardial fibrosis"}
    ]},
    {"tested_on": "myocardial fibrosis", "assay": "not given", "conditions": "disclosed in PCT/AU2005/000835; cited from earlier work", "values": [
      {"substance": "Phe-Thr-Asp-Asn-Tyr-Thr-Arg-Leu-Arg-Lys-Gln-Met-Ala-Val-Lys-Lys-Tyr-Leu-Asn-Ser-Ile-Leu-Asn (FTDNYTRLRKQMAVKKYLNSILN; listed as Homo sapiens) [VIP(6-28), VIP fragment described earlier in PCT/AU2005/000835, not included in the present invention, reference compound]", "effectiveness for preventing myocardial fibrosis": "effective for preventing myocardial fibrosis"}
    ]},
    {"tested_on": "Spontaneous Hypertensive Rats (SHR)", "assay": "Effect of VIP fragment treatment on blood pressure (tail cuff plethysmography) in animal model of hypertension", "assay_type": "in vivo, rat", "conditions": "SHR on 2.2% salt diet for 4 weeks, peptide infused at 5 pmol/kg/min for 4 weeks, FIGS. 6-9", "excerpt": "(§1) To determine whether VIP and fragments were effective in controlling blood pressure, Spontaneous Hypertensive Rats (SHR) were acclimated to blood pressure measurement by tail cuff plethysmography and then they were placed on a 2.2% salt diet for 4 weeks.\n(§2) The rats were randomized to Control (Hartman's Solution) vehicle infusion, VIP(1-28) ([…] (SEQ ID NO: 1), VIP(4-10) (Ala-Val-Phe-Thr-Asp-Asn-Tyr) (SEQ ID NO: 29), VIP(4-12) (Ala-Val-Phe-Thr-Asp-Asn-Tyr-Thr-Arg) (SEQ ID NO: 31), VIP(4-16) (Ala-Val-Phe-Thr-Asp-Asn-Tyr-Thr-Arg-Leu-Arg-Lys-Gln) (SEQ ID NO: 35), VIP(4-20) (Ala-Val-Phe-Thr-Asp-Asn-Tyr-Thr-Arg-Leu-Arg-Lys-Gln-Met-Ala-Val-Lys) (SEQ ID NO: 39), VIP(4-24) ([…] (SEQ ID NO: 43), VIP(4-28) ([…] (SEQ ID NO: 90), VIP(6-10) (Phe-Thr-Asp-Asn-Tyr) (SEQ ID NO: 66), VIP(6-12) (Phe-Thr-Asp-Asn-Tyr-Thr-Arg) (SEQ ID NO: 68), VIP(6-16) (Phe-Thr-Asp-Asn-Tyr-Thr-Arg-Leu-Arg-Lys-Gln) (SEQ ID NO: 72), VIP(6-20) (Phe-Thr-Asp-Asn-Tyr-Thr-Arg-Leu-Arg-Lys-Gln-Met-Ala-Val-Lys) (SEQ ID NO: 76), VIP(6-24) (Phe-Thr-Asp-Asn-Tyr-Thr-Arg-Leu-Arg-Lys-Gln-Met-Ala-Val-Lys-Lys-Tyr-Leu-Asn) (SEQ ID NO: 80), VIP(6-28) ([…] (SEQ ID NO: 84), VIP(16-20) (Gln-Met-Ala-Val-Lys) (SEQ ID NO: 20), VIP(16-24) (Gln-Met-Ala-Val-Lys-Lys-Tyr-Leu-Asn) (SEQ ID NO: 93), VIP(16-28) (Gln-Met-Ala-Val-Lys-Lys-Tyr-Leu-Asn-Ser-Ile-Leu-Asn) (SEQ ID NO: 88), VIP(1-12) (His-Ser-Asp-Ala-Val-Phe-Thr-Asp-Asn-Tyr-Thr-Arg) (SEQ ID NO: 91) and VIP(10-28) (Tyr-Thr-Arg-Leu-Arg-Lys-Gln-Met-Ala-Val-Lys-Lys-Tyr-Leu-Asn-Ser-Ile-Leu-Asn) (SEQ ID NO: 92), VIP(4-10) (Ala-Val-Phe-Thr-Asp-Asn-Tyr) (SEQ ID NO: 29).\n(§3) Each peptide was infused at 5 pmol/kg/min\n(§4) Blood pressure was measured by tail cuff plethysmography twice weekly for 4 weeks.", "values": [
      {"substance": "AVFTDNYTRLRKQMAVKKYLN [VIP(4-24)]", "reduction in systolic blood pressure (SBP) relative to the control solution": "significant reductions in SBP"},
      {"substance": "FTDNYTRLRKQMAVK [VIP(6-20)]", "reduction in systolic blood pressure (SBP) relative to the control solution": "significant reductions in SBP"},
      {"substance": "Phe-Thr-Asp-Asn-Tyr-Thr-Arg-Leu-Arg-Lys-Gln-Met-Ala-Val-Lys-Lys-Tyr-Leu-Asn-Ser-Ile-Leu-Asn (FTDNYTRLRKQMAVKKYLNSILN; listed as Homo sapiens) [VIP(6-28), VIP fragment described earlier in PCT/AU2005/000835, not included in the present invention, reference compound]", "reduction in systolic blood pressure (SBP) relative to the control solution": "significant reductions in SBP"},
      {"substance": "His-Ser-Asp-Ala-Val-Phe-Thr-Asp-Asn-Tyr-Thr-Arg-Leu-Arg-Lys-Gln-Met-Ala-Val-Lys-Lys-Tyr-Leu-Asn-Ser-Ile-Leu-Asn (HSDAVFTDNYTRLRKQMAVKKYLNSILN; listed as Homo sapiens) [VIP, reference compound]", "reduction in systolic blood pressure (SBP) relative to the control solution": "not seen to have any significant effect in reducing SBP"},
      {"substance": "AVFTDNYTRLRKQ [VIP(4-16)]", "reduction in systolic blood pressure (SBP) relative to the control solution": "significant reductions in SBP"},
      {"substance": "AVFTDNYTRLRKQMAVKKYLNSILN [VIP(4-28)]", "reduction in systolic blood pressure (SBP) relative to the control solution": "significant reductions in SBP"},
      {"substance": "FTDNYTRLRKQMAVKKYLN [VIP(6-24)]", "reduction in systolic blood pressure (SBP) relative to the control solution": "significant reductions in SBP"},
      {"substance": "AVFTDNYTR [VIP(4-12)]", "reduction in systolic blood pressure (SBP) relative to the control solution": "significant reductions in SBP"},
      {"substance": "AVFTDNYTRLRKQMAVK [VIP(4-20)]", "reduction in systolic blood pressure (SBP) relative to the control solution": "significant reductions in SBP"}
    ]},
    {"tested_on": "Spontaneous Hypertensive Rats (SHR)", "assay": "Effect of VIP fragment treatment on blood pressure (tail cuff plethysmography) in animal model of hypertension", "assay_type": "in vivo, rat", "conditions": "SHR on high salt diet, 5 pmol/kg/min for 4 weeks, FIG. 6", "excerpt": "as §1, §2, §3, §4", "values": [
      {"substance": "AVFTDNYTRLRKQ [VIP(4-16)]", "relative efficacy in reducing SBP compared with VIP(4-12) and VIP(4-20)": "less efficacious"}
    ]}
  ]
}
